For one data set, the system named is Poly(dA).Poly(dT). Briefly: Circular dichroism titration with Poly(dA).Poly(dT). Particulars: 20 μM Poly(dA).Poly(dT), 10 mM MES, 100 mM NaCl, 1 mM EDTA, 25 °C. It is filed as binding. Here is the method:
Fig. 2 Circular dichroism spectra of the titration of representative compounds, (4a, 4d, 8a, 8b, 8c) with a 20 μM Poly(dA).Poly(dT) sequence in the buffer (10 mM MES, 100 mM NaCl, 1 mM EDTA, at pH, 7.4) at 25 °C.
CD spectra were collected employing a Jasco J-810 spectrometer at 25 °C using different ratios of compound to DNA at 25 °C in MES 10 buffer (10 mM MES, 100 mM NaCl, I mM EDTA).First, a DNA solution in a 1-cm quartz cuvette was scanned over the desired wavelength range. Tested compounds at increasing ratios, were titrated into the same cuvette and the complexes rescanned under the same conditions.

Data set [1] has as its system T. b. rhodesiense (STIB900) infected mice. Briefly: STIB900 acute mouse model for T. b. r. infections. As to conditions: 4 × 5 mg/kg i.p.; for In vivo (cures), cured/infected mice: T. b. rhodesiense (STIB900) infected mice; for In vivo cure of infected mice (in words): T. b. rhodesiense infected mice. It is filed as in vivo. On the procedure:
The excellent in vitro activity and selectivity of the indole bichalcophenes diamidines (4a-d) encouraged us to test them in vivo in the rigorous T. b. r. STIB900 mouse model (Table 1) for the acute hemolymphatic stage of the African trypanosomiasis. The dosage applied was low with a daily intraperitoneal (i.p.) dose of 5 mg/kg compound for four consecutive days.
(§1) The in vitro viability assays were with the T. b. r. strain STIB 900 and the chloroquine resistant P. f. strain K1. The efficacy studies were with the STIB900 acute mouse model for T. b. r. infections. Dosage was 4 × 5 mg/kg i.p. performed as previously described in detail. Cytotoxicity was evaluated in L6 rat myoblast cells as previously reported in detail.

For the next data set, the system named is poly(dA-dT)n. As to the kind of experiment: Thermal melting (ΔTm) of poly(dA-dT) DNA. It is filed as binding. As to conditions: ratio 0.3 mol compound per mole of DNA; CAC 10 buffer pH 7.0. On the procedure:
Thermal melting experiments were performed with a Cary 300 spectrophotometer. Cuvettes were mounted in a thermal block where the solution temperatures were mesaured with a thermistor in the reference cuvette. Temperatures were maintained under computer control and increased at 0.5 °C/min. The experiments were performed in 1 cm path length quartz cuvettes in CAC 10 buffer (cacodylic acid 10 mM, EDTA 1 mM, NaCl 100 mM with NaOH added to give pH = 7.0). Poly (dA-dT) DNA concentrations were determined by measuring its absorbance at 260 nm. A ratio of 0.3 mol compound per mole of DNA was used for the complex and DNA alone was used as control. ΔTm values were determined from the peak of first derivative curves (dA/dT).

Data set [2] deals with P. f. (Plasmodium falciparum) strain K1. Briefly: In vitro viability assay, chloroquine resistant P. f. strain K1. As to conditions: for IC50: Plasmodium falciparum; for SI/P.f, Selectivity Index IC50 (L6)/IC50 (P.f.): ratio L6 versus P. f. K1. It is filed as cell-based. Here is the method: as §1
Data set [3] in a line: Cytotoxicity in L6 rat myoblast cells. It is filed as cell-based. As to conditions: cultured L6 rat myoblast cells; read-out: Cytotox. IC50 (L6). Here is the method:
as §1

The subject of data set [4] is T. b. r. (Trypanosoma brucei rhodesiense) STIB900. Briefly: In vitro viability assay, T. b. r. strain STIB900. It is filed as cell-based. Particulars: for IC50: Trypanosoma brucei, read-out: T. b. r. IC50; for SI/T. b. r., Selectivity Index IC50 (L6)/IC50 (T b.r.): ratio L6 versus T. b. r. STIB900. On the procedure:
as §1

For data set [5], the system named is T. b. rhodesiense (STIB900) infected mice. Also noted: method as in PMID 23959303. Particulars: 5 mg/kg i.p. daily for four consecutive days; cited from earlier work.
Where [6] appears, read: strain STIB900, average of duplicate determinations.

Structures can show the parent of a compound that is named as a salt. Where two headings read alike, the source gives them in different places.

As to `N=C(N)c1ccc2cc(-c3ccc(-c4ccc(C(=N)N)s4)s3)[nH]c2c1` (as salt: hydrochloride) [Compound 4d, 2-(5′-Amidino-2,2′-bithiophen-5-yl)-1H-indole-6-amidine hydrochloride salt], the melting point was above 300 °C.

As for `N=C(N)c1ccc2cc(-c3ccc(-c4ccc(C(=N)N)o4)o3)[nH]c2c1` [Compound 4a, 2-(5′-Amidino-2,2′-bifuran-5-yl)-1H-indole-6-amidine hydrochloride salt], the “Induced CD signal on binding (minor groove binding)” value (shortened to “Induced CD signal on binding”) with Poly(dA).Poly(dT) is listed as “very strong induced CD signals”. Further, the “In vivo (cures), cured/infected mice” value in data set [1] is given as 0/4. Also, in the data set with poly(dA-dT)n, the “ΔTm, thermal melting increase of poly(dA-dT)n” value (“ΔTm, thermal melting increase” below) was 28 ^oC. Further, the IC50 is 2.9 nM in data set [2] (K1, read-out: P.f. IC50); 16.5 µM in data set [3]; 15 nM in data set [4]. The “SI/T. b. r., Selectivity Index IC50 (L6)/IC50 (T b.r.)” value (“SI/T. b. r., Selectivity Index IC50” for short) in data set [4] worked out at 1100.

As to `N=C(N)c1ccc(OCCCCCOc2ccc(C(=N)N)cc2)cc1` [pentamidine, Pentamidine], the “In vivo (cures), cured/infected mice” value in data set [5] is on record as 1/4.

Regarding `N#Cc1ccc2nc(-c3ccc(-c4ccc(C#N)s4)s3)[nH]c2c1` [Compound 7c, 2-(5′-Cyano-2,2′-bithiophen-5-yl)-1H-benzimidazole-5(6)-carbonitrile], the melting point is above 300 °C. Moreover, the “In vivo cure of infected mice (in words)” value in data set [1] is reported as “cured all mice”.

The compound `N=C(N)c1ccc2cc(-c3ccc(-c4ccc(C(=N)N)s4)o3)[nH]c2c1` (as salt: hydrochloride) [Compound 4b, 2-(5-(5-Amidinothiophen-2-yl)furan-2-yl)-1H-indole-6-amidine hydrochloride salt] came in with a melting point above 300 °C.

`N=C(N)c1ccc2nc(-c3ccc(-c4ccc(C(=N)N)o4)o3)[nH]c2c1` (as salt: hydrochloride) [Compound 8a, 2-(5′-Amidino-2,2′-bifuran-5-yl)-1H-benzimidazole-5(6)-amidine hydrochloride salt] showed a melting point above 300 °C.

In the case of `N=C(N)c1ccc2cc(-c3ccc(-c4ccc(C(=N)N)o4)s3)[nH]c2c1` [Compound 4c, 2-(5-(5-Amidinofuran-2-yl)thiophen-2-yl)-1H-indole-6-amidine hydrochloride salt], in data set [1] (STIB900 mouse model), the “Sterile cures in mice infected with T. b. r.” value is recorded as 100%. In data set [1], the “In vivo (cures), cured/infected mice” value is given as 4/4 and the “In vivo cure of infected mice (in words)” value was “curing all T. b. r. infected mice”. For the same compound, in the data set with poly(dA-dT)n, the “ΔTm, thermal melting increase” value is 28 ^oC. The concentration for half-maximal inhibition (IC50) in data set [2] (K1, read-out: P.f. IC50) came out at 6.8 nM. Moreover, the “SI/P.f, Selectivity Index IC50 (L6)/IC50 (P.f.)” value (from here on “SI/P.f, Selectivity Index IC50”) in data set [2] was determined as 2588. Also, the 50% inhibitory concentration (IC50) in data set [3] stood at 17.6 µM. In addition, in data set [4], the IC50 was determined as 4 nM and the “SI/T. b. r., Selectivity Index IC50” value amounted to 4400.

For the compound `N=C(N)c1ccc2cc(-c3ccc(-c4ccc(C(=N)N)o4)o3)[nH]c2c1` (as salt: hydrochloride) [Compound 4a, 2-(5′-Amidino-2,2′-bifuran-5-yl)-1H-indole-6-amidine hydrochloride salt], the melting point was above 300 °C.

As to `N=C(N)c1ccc2nc(-c3ccc(-c4ccc(C(=N)N)s4)s3)[nH]c2c1` [Compound 8c, 2-(5′-Amidino-2,2′-bithiophen-5-yl)-1H-benzimidazole-5(6)-amidine hydrochloride salt], the “Induced CD signal on binding” value with Poly(dA).Poly(dT) was “very strong induced CD signals”. Further, the “ΔTm, thermal melting increase” value in the data set on poly(dA-dT)n is given as >30 ^oC. The IC50 worked out at 26.2 µM in data set [3] and 25 nM in data set [4] (setting [6]). Besides, the “SI/T. b. r., Selectivity Index IC50” value in data set [4] is given as 1048.

As to `N=C(N)c1ccc2cc(-c3ccc(-c4ccc(C(=N)N)s4)s3)[nH]c2c1` [Compound 4d, 2-(5′-Amidino-2,2′-bithiophen-5-yl)-1H-indole-6-amidine hydrochloride salt], the “Induced CD signal on binding” value in the data set on Poly(dA).Poly(dT) was “very strong induced CD signals”. For the same compound, the “In vivo (cures), cured/infected mice” value in data set [1] is 0/4. Moreover, the “ΔTm, thermal melting increase” value in the data set with poly(dA-dT)n was >30 ^oC. Moreover, the IC50 in data set [2] (K1, read-out: P.f. IC50) turned out to be 6.8 nM; in data set [3], 11.6 µM; in data set [4], 2 nM. Moreover, the “SI/P.f, Selectivity Index IC50” value in data set [2] was determined as 1705. Moreover, the “SI/T. b. r., Selectivity Index IC50” value in data set [4] came out at 5800.

For the compound `N=C(N)c1ccc2nc(-c3ccc(-c4ccc(C(=N)N)o4)o3)[nH]c2c1` [Compound 8a, 2-(5′-Amidino-2,2′-bifuran-5-yl)-1H-benzimidazole-5(6)-amidine hydrochloride salt], the “Induced CD signal on binding” value in the data set on Poly(dA).Poly(dT) was “very strong induced CD signals”. Moreover, the “ΔTm, thermal melting increase” value with poly(dA-dT)n is 29 ^oC. In addition, the concentration for half-maximal inhibition (IC50) in data set [2] (chloroquine resistant strain K1, average of duplicate determinations, read-out: P.f. IC50) was found to be 91.9 nM; in data set [3] it was 41.8 µM; in data set [4] (setting [6]), 102 nM. In addition, the “SI/P.f, Selectivity Index IC50” value in data set [2] was 454. Moreover, in data set [4], the “SI/T. b. r., Selectivity Index IC50” value turned out to be 409.

Turning to `N=C(N)c1ccc2nc(-c3ccc(-c4ccc(C(=N)N)s4)o3)[nH]c2c1` [Compound 8b, 2-(5-(5-Amidinothiophen-2-yl)furan-2-yl)-1H-benzimidazole-5(6)-amidine hydrochloride salt], the “Induced CD signal on binding” value with Poly(dA).Poly(dT) is “very strong induced CD signals”. In addition, the “ΔTm, thermal melting increase” value in the data set with poly(dA-dT)n is on record as 27 ^oC. The IC50 amounted to 15 µM in data set [3] and 64 nM in data set [4] (setting [6]). Further, the “SI/T. b. r., Selectivity Index IC50” value in data set [4] was found to be 234.

As for `N=C(N)c1ccc2nc(-c3ccc(-c4ccc(C(=N)N)s4)s3)[nH]c2c1` (as salt: hydrochloride) [Compound 8c, 2-(5′-Amidino-2,2′-bithiophen-5-yl)-1H-benzimidazole-5(6)-amidine hydrochloride salt], the melting point is above 300 °C.

For the compound `N=C(N)c1ccc2cc(-c3ccc(-c4ccc(C(=N)N)s4)o3)[nH]c2c1` [Compound 4b, 2-(5-(5-Amidinothiophen-2-yl)furan-2-yl)-1H-indole-6-amidine hydrochloride salt], in data set [1], the “In vivo (cures), cured/infected mice” value is reported as 0/4. For the same compound, the “ΔTm, thermal melting increase” value in the data set with poly(dA-dT)n is reported as >30 ^oC. Further, the half-inhibitory concentration (IC50) in data set [2] (K1, read-out: P.f. IC50) came out at 7.3 nM; in data set [3] it was 15.7 µM; in data set [4], 15 nM. The “SI/P.f, Selectivity Index IC50” value in data set [2] is recorded as 2150. For the same compound, the “SI/T. b. r., Selectivity Index IC50” value in data set [4] turned out to be 1046.

Take `N=C(N)c1ccc2cc(-c3ccc(-c4ccc(C(=N)N)o4)s3)[nH]c2c1` (as salt: hydrochloride) [Compound 4c, 2-(5-(5-Amidinofuran-2-yl)thiophen-2-yl)-1H-indole-6-amidine hydrochloride salt]: the melting point is above 300 °C.

In turn, `N=C(N)c1ccc2nc(-c3ccc(-c4ccc(C(=N)N)s4)o3)[nH]c2c1` (as salt: hydrochloride) [Compound 8b, 2-(5-(5-Amidinothiophen-2-yl)furan-2-yl)-1H-benzimidazole-5(6)-amidine hydrochloride salt] showed a melting point above 300 °C.
